Results published in PMC8614864, “Bioengineered System for High Throughput Screening of Kv1 Ion Channel Blockers” (Bioengineering, 2021).
Read-outs that look alike come from different tables or passages of the source.

Key:
[1] = target: KcsA-Kv1.3-RFP; assay: Direct titration of GFP-labeled toxins on spheroplasts by flow cytometry; conditions: slope by linear fitting of reduced data (maximum of normal distribution along GFP axis); one-site binding curve; 90–120 min incubation, 50 mM Tris–HCl pH 7.5 binding buffer; Mean ± SD (SD from fit, single dataset)
[2] = system: KcsA-Kv1.3-RFP; assay: as above; assay type: binding
Protocol: Spheroplasts were prepared according to the previously developed protocol. Briefly, E. coli cells (BL21 (DE3) strain) transformed with pET28a-KcsA-Kv1.3-RFP plasmid were cultivated in a minimal M9 medium at 37 °C up to OD560 = 0.8, then induced with 50 μM IPTG and further grown for 18 h. Cells were harvested by centrifugation (5000× g, 10 min, 4 °C), incubated in buffer A (10 mM Tris–HCl, pH 8.0, 0.5 m sucrose) containing lysozyme (20 μg/mL) for 7 min on ice, then diluted twofold with buffer B (10 mM Tris–HCl, pH 8.0, 0.3 mM ethylenediamine tetraacetic acid) and further incubated for 20 min. Then MgCl2 was added to a final concentration of 10 mM to stabilize the spheroplasts. Obtained in this way, the spheroplast suspension has OD560 of about 0.5 and was diluted for binding assay as described further.
For ligand binding analysis, a series of ligand dilutions were prepared in 12 × 75 mm flow cytometry test tubes. For this, 45 µL of toxin solution with a ten times higher concentration than the maximal concentration on titration curve was prepared. This solution was serially diluted with 3.16-fold step (13.9 µL of toxin solution + 30 µL buffer). These toxin dilutions were supplemented with 270 µL of spheroplast suspension at 10^6 cells/mL to give 300 µL final reaction mixtures. For analysis of displacement of GFP-labeled toxins by unlabeled toxins, spheroplast suspensions were supplemented with 1.1× concentration of GFP-labeled toxin before mixing with unlabeled toxin dilutions. All dilutions were made in a binding buffer: 0.25 M sucrose, […], 2 mM KCl, 50 mM NaCl, 10 mM MgCl2, 0.2% BSA and 50 mM Tris–HCl, pH 7.5.
To ensure equilibrium conditions, we analyzed samples after 90–120 min of incubation without removing toxins. Data acquisition was carried out with FC-500 flow cytometer (Beckman Coulter, Brea, CA, USA) using 488 nm excitation for both GFP and RFP and fluorescence detection with FL1 (505–545 nm) and FL3 (610–630 nm) channels for GFP and RFP, respectively. To minimize background fluorescence, samples were run at low speed that gave approx. 100–500 events/s. Events were triggered by side scatting (SSC) so that RFP-labeled cells constituted approx. 30% of events (Figure 2). Remaining events were also present in the samples of filtered binding buffer without cells, so were likely to be related to system noise (either electronic or optical) but not to the dim spheroplasts.
Automated data analysis was performed by a dedicated script after pre-processing with commercial software. The script was available in user-friendly Jupyter notebook format where data were processed stepwise, and user input-output was realized through an internet browser. This script is designed to process multiple datasets at once and can be easily adjusted for someone’s actual needs.
Initial preprocessing was done with used FlowJo v10 software (Treestar Inc., Wilmington, DE, USA). This was used for gating on cells by forward and side scatter, followed by gating of RFP-positive events (Figure 1) and exporting of gated data in FCS format. This step was preferable since it allowed one to convert data into a conventional FCS format (our flow cytometer import data in LMD file format) and to filter out off-target events such as system noise, cell debris, clumped and untransfected cells (without Kv1.3-RFP in our case). We also created a script for this preprocessing but found it more complicated and less robust than commercial software.
Filtered data were processed stepwise by a dedicated script, written in the Python programming language and available as a Jupyter notebook for running either on a local machine or in a kaggle data cloud (https://www.kaggle.com/georgesharonov/fcsgroupfit, accessed and executed on 14 November 2021). Data processing workflow was designed for high throughput analysis by processing all similar data in a single script execution. The processing steps were detailed within the notebook. […]

ChTx-GFP: hybrid protein, ChTx tagged N-terminally with eGFP, analogous to AgTx2-GFP; fluorescent probe
Kd [1]: 0.74 ± 0.17 nM | Slope, nonspecific binding ([2]; 1 nM labeled toxin + 316 nM ChTx, fitting of all events): 0.47 | Slope, nonspecific binding ([2]; 1 nM labeled toxin + 316 nM ChTx, fitting of reduced data): 0.25 | Slope (proportional to occupied receptor fraction) ([2]; 1 nM labeled toxin, fitting of all events): 0.55 | Slope (proportional to occupied receptor fraction) ([2]; 1 nM labeled toxin, fitting of reduced data): 0.56 | Slope, nonspecific binding ([2]; 10 nM labeled toxin + 316 nM ChTx, fitting of all events): 0.53 | Slope, nonspecific binding ([2]; 10 nM labeled toxin + 316 nM ChTx, fitting of reduced data): 0.21 | Slope (proportional to occupied receptor fraction) ([2]; 10 nM labeled toxin, fitting of all events): 0.87 | Slope (proportional to occupied receptor fraction) ([2]; 10 nM labeled toxin, fitting of reduced data): 0.84 | Kd ([2]; binding curve of direct titration, reduced data, nonspecific binding subtracted, flow cytometry, read-out: Kd (printed in Figure 4A)): 0.735 nM
